# According to patent publication US8871767B2, “2-arylimidazo[1,2-B]pyridazine, 2-phenylimidazo[1,2-A]pyridine, and 2-phenylimidazo[1,2-A]pyrazine derivatives” (Hengrui (USA) Ltd., priority 2010, dated 2014):
# Where two headings read alike, the source gives them in different places.
# What was measured:
# [1] = tested on: Hedgehog pathway activation on 10T1/2/Smo#3 cells (C3H10T1/2 cells transfected with human Smoothened receptor); assay: Hedgehog pathway activation on 10T1/2/Smo#3 cells measured by ALP activity; type: cell-based
# Summary of the method: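 Inhibition of alkaline phosphatase induction, read fluorometrically from 4-methylumbelliferyl phosphate conversion, gave IC50 values; CellTiter-Blue tracked viability in parallel. Cells were the human Smo-transfected 10T1/2/Smo#3 pool, stimulated by 10-20% hShh conditioned medium or the Smo agonist SAG (500 nM).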
# [2] = tested on: Hedgehog pathway activation (GLi-luciferase reporter) in Shh Light II reporter cells; assay: Hedgehog pathway activation on Shh Light II reporter cells measured by luciferase activity; type: cell-based
# Summary of the method: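 Shh Light II reporter cells carrying a hedgehog-responsive GLi-luciferase reporter were stimulated either with 500 nM SAG, a direct Smoothened agonist, or with conditioned media containing human Sonic Hedgehog (hShh). Test compounds were evaluated for blocking this pathway activation, quantified by luciferase activity. Cell viability was monitored in parallel with the Celltiter-Blue® assay.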
# [3] = Mus musculus, C3H 10T1/2, 10T1/2/Smo#3 cells, measured by ALP activity, read-out: ALP (IC50, inhibition of Hedgehog pathway activation)
# [4] = Mus musculus, Shh Light II, hShh activation, read-out: Shh (IC50, inhibition of Hedgehog pathway activation)
# [5] = Mus musculus, C3H 10T1/2, 10T1/2/Smo#3 cells, hShh activation, ALP activity, read-out: 10T1/2/Smo#3 ALP activity (hShh Activation)
# [6] = Mus musculus, Shh Light II, SAG activation (500 nM SAG), read-out: Shh Light II luciferase activity (SAG activation)
# [7] = Mus musculus, Shh Light II, hShh activation, read-out: Shh Light II luciferase activity (hShh activation)
Compound,"IC50 [1, 3] [nM]","IC50 [2, 4] [nM]",also measured
"Fc1ccc(CN2CCN(c3ccc4nc(-c5ccc(F)cc5)c(C5CC5)n4n3)CC2)cc1 [Example 167, 3-cyclopropyl-6-(4-(4-fluorobenzyl)piperazin-1-yl)-2-(4-fluorophenyl)imidazo[1,2-b]pyridazine]",> 10000,2270,–
"CCOc1ccc2nc(-c3ccc(C(F)(F)F)c(S(=O)(=O)NC)c3)cn2n1 [Example 217, 5-(6-ethoxyimidazo[1,2-b]pyridazin-2-yl)-N-methyl-2-(trifluoromethyl)benzenesulfonamide]",535,6600,–
"CCOc1ccc2nc(-c3ccc(C(F)(F)F)c(NC(=O)CC(C)(C)C)c3)cn2n1 [Example 187, N-(5-(6-ethoxyimidazo[1,2-b]pyridazin-2-yl)-2-(trifluoromethyl)phenyl)-3,3-dimethylbutanamide]",> 10000,> 10000,–
Cc1ccc(-c2cn3nc(-c4ccc(NC(=O)CCCCCCC(=O)NOC5CCCCO5)cc4)ccc3n2)cc1NC(=O)C(C)(C)C (centres unmarked) [compound 562],756,376,–
"O=C(Nc1cc(-c2cn3nc(-c4cccnc4C(F)(F)F)ccc3n2)ccc1F)C1CCCC1 [Example 678, N-(2-fluoro-5-(6-(2-(trifluoromethyl)pyridin-3-yl)imidazo[1,2-b]pyridazin-2-yl)phenyl)cyclopentanecarboxamide]",342,139,–
"COc1ccc2nc(-c3cc(NC(=O)C(C)(C)C)ccc3Cl)cn2n1 [Example 115, N-(4-chloro-3-(6-methoxyimidazo[1,2-b]pyridazin-2-yl)phenyl)pivalamide]",2810,2870,–
"CCc1ccc(-c2cn3nc(-c4cccnc4C(F)(F)F)ccc3n2)cc1NC(=O)C1(C)COC1 [Example 696, N-(2-ethyl-5-(6-(2-(trifluoromethyl)pyridin-3-yl)imidazo[1,2-b]pyridazin-2-yl)phenyl)-3-methyloxetane-3-carboxamide]",229,254,–
"Cc1ccc(-c2cn3nc(-c4cc(F)ccc4F)ccc3n2)cc1NC(=O)C(C)(C)C [Example 261, N-(5-(6-(2,5-difluorophenyl)imidazo[1,2-b]pyridazin-2-yl)-2-methylphenyl)pivalamide]",91,142,–
"CC(=O)Nc1ccccc1-c1ccc2nc(-c3ccc(C(F)(F)F)c(NC(=O)C(C)(C)C)c3)cn2n1 [Example 255, N-(5-(6-(2-acetamidophenyl)imidazo[1,2-b]pyridazin-2-yl)-2-(trifluoromethyl)phenyl)pivalamide]",490,563,–
"CC(C)(C)C(=O)Nc1cc(-c2cn3nc(-c4ccc(F)nc4)ccc3n2)ccc1C(F)(F)F [Example 174, N-(5-(6-(6-fluoropyridin-3-yl)imidazo[1,2-b]pyridazin-2-yl)-2-(trifluoromethyl)phenyl)pivalamide]",215,689,–
"Cc1ncc(-c2cn3nc(-c4ccccc4F)ccc3n2)cc1NC(=O)C(C)(C)C [Example 390, N-(5-(6-(2-fluorophenyl)imidazo[1,2-b]pyridazin-2-yl)-2-methylpyridin-3-yl)pivalamide]",469,270,"IC50 [1, 5]: 300 to 3000 nM; IC50 [2, 6]: 300 to 3000 nM; IC50 [2, 7]: < 300 nM"
"CCOC(=O)CCCCCCOc1cccc(-c2ccc3nc(-c4ccc(C)c(NC(=O)C(C)(C)C)c4)cn3n2)c1C(F)(F)F [Example 423, ethyl 7-(3-(2-(4-methyl-3-pivalamidophenyl)imidazo[1,2-b]pyridazin-6-yl)-2-(trifluoromethyl)phenoxy)heptanoate]",265,1560,–
"CC(C)(C)C(=O)Nc1cc(-c2cn3nc(-c4cccc(C(F)(F)F)c4)ccc3n2)ccc1C(F)(F)F [Example 223, N-(2-(trifluoromethyl)-5-(6-(3-(trifluoromethyl)phenyl)imidazo[1,2-b]pyridazin-2-yl)phenyl)pivalamide]",289,97,–
"CC(C)(C)C(=O)Nc1cc(-c2cn3nc(Oc4ccccc4F)ccc3n2)ccc1C(F)(F)F [Example 195, N-(5-(6-(2-fluorophenoxy)imidazo[1,2-b]pyridazin-2-yl)-2-(trifluoromethyl)phenyl)pivalamide]",718,267,–
"COc1ccc2nc(-c3ccc(Cl)c(NC(=O)C4CCCC4)c3)cn2n1 [Example 112, N-(2-chloro-5-(6-methoxyimidazo[1,2-b]pyridazin-2-yl)phenyl)cyclopentanecarboxamide]",9520,> 10000,–
CC(=O)c1ccc(F)c(-c2ccc3nc(-c4ccc(C)c(NC(=O)C(C)(C)C)c4)cn3n2)c1 [compound 529],116,197,"IC50 [1, 5]: < 300 nM; IC50 [2, 6]: 300 to 3000 nM; IC50 [2, 7]: < 300 nM"
"N-(2-(2-(trifluoromethyl)pyridin-3-yl)-5-(6-(2-(trifluoromethyl)pyridin-3-yl)imidazo[1,2-b]pyridazin-2-yl)phenyl)pivalamide [Example 663]",–,–,"IC50 ([1]; 10T1/2/Smo#3 cells, measured by ALP activity, read-out: ALP (IC50, inhibition of Hedgehog pathway activation)): 3540 nM; IC50 ([2]; hShh activation, read-out: Shh (IC50, inhibition of Hedgehog pathway activation)): 6230 nM"
"Cc1ccc(-c2cn3nc(-c4ccc(F)cc4C(F)(F)F)ccc3n2)cc1NC(=O)C(C)(C)C [Example 396, N-(5-(6-(4-fluoro-2-(trifluoromethyl)phenyl)imidazo[1,2-b]pyridazin-2-yl)-2-methylphenyl)pivalamide]",82,31,–
"COc1ccc2nc(-c3cc(NC(=O)C4CC4)ccc3Cl)cn2n1 [Example 116, N-(4-chloro-3-(6-methoxyimidazo[1,2-b]pyridazin-2-yl)phenyl)cyclopropanecarboxamide]",> 10000,9650,–
"CC(C)(C)C(=O)Nc1cc(-c2cn3nc(-c4ccccc4F)ccc3n2)ccc1C(F)(F)F [Example 171, N-(5-(6-(2-fluorophenyl)imidazo[1,2-b]pyridazin-2-yl)-2-(trifluoromethyl)phenyl)pivalamide]",221,41,–
"CCN[C@@H]1CCN(c2ccc3nc(-c4ccc(C(F)(F)F)c(NC(=O)C(C)(C)C)c4)cn3n2)C1 [Example 635, (R)—N-(5-(6-(3-(ethylamino)pyrrolidin-1-yl)imidazo[1,2-b]pyridazin-2-yl)-2-(trifluoromethyl)phenyl)pivalamide]",159,110,–
Cc1ccc(-c2cn3nc(N4CCC(C(N)=O)CC4)ccc3n2)cc1NC(=O)C(C)(C)C [compound 542],88,94,"IC50 [1, 5]: < 300 nM; IC50 [2, 6]: 300 to 3000 nM; IC50 [2, 7]: < 300 nM"
"Cc1ccccc1CN1CCN(c2ccc3nc(-c4ccccc4)c(C)n3n2)CC1 [Example 163, 3-methyl-6-(4-(2-methylbenzyl)piperazin-1-yl)-2-phenylimidazo[1,2-b]pyridazine]",1050,1060,–
"CCc1ccc(-c2cn3nc(-c4cccnc4C(F)(F)F)ccc3n2)cc1NC(=O)CC(F)(F)F [Example 692, N-(2-ethyl-5-(6-(2-(trifluoromethyl)pyridin-3-yl)imidazo[1,2-b]pyridazin-2-yl)phenyl)-3,3,3-trifluoropropanamide]",951,416,–
"Cc1cc(Cl)c(-c2cn3nc(Cl)ccc3n2)cc1NC(=O)C(C)(C)C [Example 131, N-(4-chloro-5-(6-chloroimidazo[1,2-b]pyridazin-2-yl)-2-methylphenyl)pivalamide]",8280,1450,–
